From patent publication US9745299B2, “Substituted tricyclic benzimidazoles as kinase inhibitors” (SELVITA SA, priority 2012, dated 2017)
Counter-ions that a name gives are not always drawn.

Experiments:
[1] = target: T1, CDK7/CyclinH/MAT1 (Homo sapiens, UniProt P50613); experiment: ADP-Glo Kinase Assay, CDK7/CyclinH/MAT1; assay type: biochemical; settings: read-out: % inhibition at 1 μM CDK7/CyclinH/MAT1
T1 construct: purchased Millipore, Billerica, Mass., USA
Experimental: (§1) Testing of the compounds described in this invention was carried out using the ADP-Glo™ Kinase Assay from Promega Corporation (Madison, Wis., USA).
(§2) The ADP-Glo™ Kinase Assay is a luminescent ADP detection assay to measure kinase activity by quantifying the amount of ADP produced during a kinase reaction. The kinase assay is performed in kinase assay buffer (5 mM MOPS, pH 7.5, 5 mM MgCl2, 0.4 mM EDTA, 1.5 mM DTT). Test samples initially dissolved in DMSO at 10 mM were diluted with the assay buffer to 1000 nM. A 30 μL volume/well of a mixture of substrates containing ATP (final ATP concentration in each kinase assay was equal to its apparent ATP Km).
(§3) The assay was performed in two steps: first, after the kinase reaction, an equal volume of ADP-Glo™ Reagent was added to terminate the kinase reaction and deplete the remaining ATP. Second, the Kinase Detection Reagent was added to simultaneously convert ADP to ATP and allowed the newly synthesized ATP to be measured using a luciferase/luciferin reaction. The luminescent signal generated was proportional to the ADP concentration produced and was correlated with kinase activity.

[2] = tested on: SW480 cells; experiment: MTS viability assay, SW480; assay type: cell-based; settings: Homo sapiens, SW480, 72 hour incubation, read-out: IC50 [μM] SW-480 ED50
Text: (§4) The viability of CDK8 expressing cells can be evaluated using a tetrazolium salt reduction cell-based assay. In viable cells this colorimetric assay can measure mitochondrial reduction of a tetrazolium component (MTS) into an […] formazan product. For MTS viability assay, human colon cancer cell lines were used (SW480 and HCT116 cell lines), containing elevated levels of CDK8 protein and highly dependent on its expression for proliferation [see, Firenstein et al. Nature 455 (25):547-551, (2008)]. These cell lines were used to determine the activity of the compounds provided herein to inhibit CDK8 in intact cells. Human tumor cell lines were obtained from ATCC (Rockville Md. USA). In each case, and by methods known to those practiced in the art of cell culture, vaiability was measured after 72 hour incubation with the compounds provided herein using a standard MTS protocol (CellTiter 96® AQueous Non-Radioactive Cell Proliferation Assay).
(§5) Briefly, cells were plated at 10,000-20,000 cells per well in DMEM medium supplemented with 10% fetal bovine serum. The compound plate was set up by aliquoting into column 1 of a 96-well plate, the negative control (DMSO), aliquoting into column 12 the positive control, and titrating the test compound in serial dilutions into columns 2-11. An aliquot from each well of the compound plate was transferred to the plated cells and then incubated at 37° C. in 5% CO2. 20 μL of MTS tetrazolium was added to each well of optical plate and the cells were incubated at 37° C. in 5% CO2 for 2 hours. The absorbance was measured at 490 nm using a microplate reader.

[3] = tested on: SK-MEL5 melanoma; experiment: Cytotoxic effects, SK-MEL5; assay type: cell-based, human
[4] = target: T2, CDK5/p25 (Homo sapiens, UniProt Q00535); experiment: ADP-Glo Kinase Assay, CDK5/p25; assay type: biochemical; settings: read-out: % inhibition at 1 μM CDK5/p25; also: ATP at apparent Km (12 µM)
T2 construct: purchased Millipore, Billerica, Mass., USA
T2 sequence (Q00535 whole entry): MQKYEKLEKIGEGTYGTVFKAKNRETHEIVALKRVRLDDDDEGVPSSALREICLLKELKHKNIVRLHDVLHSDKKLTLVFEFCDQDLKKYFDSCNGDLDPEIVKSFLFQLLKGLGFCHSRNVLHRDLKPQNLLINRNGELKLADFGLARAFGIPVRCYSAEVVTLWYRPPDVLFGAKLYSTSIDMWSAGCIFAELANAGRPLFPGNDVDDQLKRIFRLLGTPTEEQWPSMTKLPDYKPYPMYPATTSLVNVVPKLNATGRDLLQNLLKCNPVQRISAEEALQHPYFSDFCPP
T2 sequence (Q15078 99-307 partner limits assumed): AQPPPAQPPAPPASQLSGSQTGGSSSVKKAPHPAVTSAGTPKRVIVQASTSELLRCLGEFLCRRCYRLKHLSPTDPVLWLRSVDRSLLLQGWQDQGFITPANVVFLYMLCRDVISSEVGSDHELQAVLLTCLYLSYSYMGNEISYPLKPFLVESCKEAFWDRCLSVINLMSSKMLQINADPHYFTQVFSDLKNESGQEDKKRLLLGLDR
Experimental: as §1, §2, §3

[5] = tested on: HCT116 cells; experiment: Matrigel Invasion Chambers, HCT116 invasion; assay type: cell-based, human; settings: increasing concentrations, 22 h, 10% FBS chemoattractant
Experimental: Matrigel Invasion Chambers [catalog number 354480 (BD Biosciences)] are useful to study cell invasion of malignant and normal cells. Matrigel Invasion Chambers can be used to study the mechanisms of invasion and to identify factors that interfere with this process in an in vitro environment. According to standard assays known to the skilled person, 5×10^4 HCT116 cells/ml were added in each case to the upper chamber of the Matrigel Invasion Chambers in the presence of increasing concentrations of “Example 1K”, whereas chemoatractant comprising 10% FBS was added to the lower chamber. The Invasion Chambers were incubated for 22 h in a humidified tissue culture incubator at 37° C., 5% CO2. Non-invading cells were removed by scrubing. The cells on the lower surface of the membrane were then stained with Diff-Quik™ stain. The results shown in FIG. 4 indicate that strong and selective CDK8 inhibitors as the “Example 1K” compound appear to be capable of repressing invasiveness of HCT116 colon cancer cells.

[6] = tested on: HCT116 cells; experiment: MTS viability assay, HCT116; assay type: cell-based; settings: Homo sapiens, HCT-116, HCT116, 72 hour incubation, read-out: IC50 [μM] HCT116 ED50
Text: as §4, §5

[7] = tested on: IL6; experiment: LPS assay, IL-6 ELISA in RAW 264.7; assay type: cell-based, mouse; settings: RAW 264.7, 4 h pre-incubation, LPS 1 μg/ml for 6 h
Text: (§6) The LPS assay was used to evaluate ability to respond to an inflammatory stimulus by mounting an acute phase response. The acute phase response is characterized by a dramatic increase in the production of a group of proteins by the liver. Bacterial LPS is an endotoxin, a potent inducer of the acute phase response and systemic inflammation. This response is induced by the production of TNFα, IL-1β, and IL-6 from activated monocytes and neutrophils in response to inflammatory stimuli. Evaluation of the three pro-inflammatory cytokines, TNFα, IL-1β, and IL-6, is the current standard method for evaluation of the ability of the immune system to mount an innate inflammatory immune response. In each case, and by methods known to those practiced in the art, RAW 264.7 Mouse leukaemic monocyte macrophage cells were plated at the density of 40 000 cells per well. Next day, cells were pre-incubated with tested compounds (fconc=10 μM) for 4 h and then stimulated with LPS (fconc=1 μg/ml) for 6 h. In the cell culture media IL-6 and TNFα levels were examined by ELISA using BD OptEIA™ Mouse IL-6 ELISA Set Cat. No 555240 and BD OptEIA™ Mouse TNFα ELISA Set Cat. No 555268 (BD Biosciences Pharmingen, SanDiego, Calif., USA), according to manufacturer's instructions.

[8] = tested on: TNFalpha; experiment: LPS assay, TNFα ELISA in RAW 264.7; assay type: cell-based, mouse; settings: RAW 264.7, 4 h pre-incubation, LPS 1 μg/ml for 6 h
Text: as §6

T1 sequence (P50613 whole entry): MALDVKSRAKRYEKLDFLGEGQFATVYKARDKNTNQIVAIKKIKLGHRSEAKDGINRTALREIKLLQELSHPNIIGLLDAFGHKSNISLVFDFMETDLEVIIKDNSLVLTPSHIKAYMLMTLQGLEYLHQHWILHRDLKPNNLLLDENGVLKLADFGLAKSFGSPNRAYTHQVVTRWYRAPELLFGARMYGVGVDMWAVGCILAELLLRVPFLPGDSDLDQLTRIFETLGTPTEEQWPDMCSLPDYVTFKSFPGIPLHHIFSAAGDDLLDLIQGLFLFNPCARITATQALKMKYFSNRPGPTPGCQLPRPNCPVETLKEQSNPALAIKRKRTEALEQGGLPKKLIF
T1 sequence (P51946 whole entry partner): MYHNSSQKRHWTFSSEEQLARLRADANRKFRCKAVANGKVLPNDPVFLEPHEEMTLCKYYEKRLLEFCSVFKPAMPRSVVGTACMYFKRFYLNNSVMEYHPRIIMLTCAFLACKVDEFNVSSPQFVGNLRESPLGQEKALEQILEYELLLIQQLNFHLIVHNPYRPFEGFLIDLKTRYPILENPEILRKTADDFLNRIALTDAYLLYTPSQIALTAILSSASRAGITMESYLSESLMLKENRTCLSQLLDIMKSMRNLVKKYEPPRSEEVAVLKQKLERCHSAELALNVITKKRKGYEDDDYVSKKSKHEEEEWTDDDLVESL
T1 sequence (P51948 whole entry partner): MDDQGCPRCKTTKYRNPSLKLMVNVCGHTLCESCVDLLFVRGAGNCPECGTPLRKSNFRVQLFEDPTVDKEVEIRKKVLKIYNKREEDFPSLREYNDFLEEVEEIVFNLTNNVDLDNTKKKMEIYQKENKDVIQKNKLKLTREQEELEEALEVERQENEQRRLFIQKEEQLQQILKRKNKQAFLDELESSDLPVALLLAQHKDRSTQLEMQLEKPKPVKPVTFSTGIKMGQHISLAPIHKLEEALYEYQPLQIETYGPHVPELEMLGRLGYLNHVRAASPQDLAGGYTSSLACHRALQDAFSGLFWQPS

Row | Structure (SMILES) | inhibition at 1 µM [1] | IC50 [2] | cytotoxic effects [3] | inhibition at 1 µM [4] | invasiveness of HCT116 cells (FIG. 4) [5] | IC50 [6] | LPS-induced IL6 production (FIG. 3) [7] | LPS-induced TNFalpha production (FIG. 3) [8]
1 | Cc1c(Br)c(Br)c2c3c1nc(N1CCNCC1)n3CCC2 [Example 1K] | 0% | 1.1 µM | showed cytotoxic effects | 13% | Repression of the invasiveness | 0.7 µM | – | –
2 | Brc1c(Br)c2c3c(nc(N4CCNCC4)n3CCC2)c1Br [Example 6, 7,8,9-tribromo-2-(piperazin-1-yl)-5,6-dihydro-4H-imidazo[4,5,1-ij]quinoline maleate] | 21% | 1 µM | showed cytotoxic effects | 39% | – | 0.4 µM | dose dependent reduction | dose dependent reduction
